pIC50, pKi: −log10 of the molar value.

The target of assay [1] is T1, Amine oxidase [flavin-containing] B (Homo sapiens, UniProt P27338).
T1 sequence (P27338 whole entry): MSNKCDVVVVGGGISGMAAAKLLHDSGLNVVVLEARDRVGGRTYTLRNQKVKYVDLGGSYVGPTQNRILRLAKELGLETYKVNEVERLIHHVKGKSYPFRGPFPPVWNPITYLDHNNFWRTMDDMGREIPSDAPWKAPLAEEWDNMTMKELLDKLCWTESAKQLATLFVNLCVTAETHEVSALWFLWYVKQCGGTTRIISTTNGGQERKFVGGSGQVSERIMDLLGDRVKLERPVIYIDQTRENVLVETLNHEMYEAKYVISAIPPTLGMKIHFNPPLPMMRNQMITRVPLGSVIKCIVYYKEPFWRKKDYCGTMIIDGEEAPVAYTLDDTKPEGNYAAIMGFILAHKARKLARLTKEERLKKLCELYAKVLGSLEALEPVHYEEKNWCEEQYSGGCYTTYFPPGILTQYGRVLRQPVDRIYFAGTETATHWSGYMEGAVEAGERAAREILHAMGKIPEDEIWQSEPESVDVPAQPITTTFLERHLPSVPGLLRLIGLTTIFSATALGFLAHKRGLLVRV
Briefly: Inhibition of recombinant human MAO-B using kynuramine as substrate assessed as inhibition constant incubated for 20 mins by spectrophotometric assay.

For assay [2], the target named is T2, Amine oxidase [flavin-containing] A (Homo sapiens, UniProt P21397).
T2 sequence (P21397 whole entry): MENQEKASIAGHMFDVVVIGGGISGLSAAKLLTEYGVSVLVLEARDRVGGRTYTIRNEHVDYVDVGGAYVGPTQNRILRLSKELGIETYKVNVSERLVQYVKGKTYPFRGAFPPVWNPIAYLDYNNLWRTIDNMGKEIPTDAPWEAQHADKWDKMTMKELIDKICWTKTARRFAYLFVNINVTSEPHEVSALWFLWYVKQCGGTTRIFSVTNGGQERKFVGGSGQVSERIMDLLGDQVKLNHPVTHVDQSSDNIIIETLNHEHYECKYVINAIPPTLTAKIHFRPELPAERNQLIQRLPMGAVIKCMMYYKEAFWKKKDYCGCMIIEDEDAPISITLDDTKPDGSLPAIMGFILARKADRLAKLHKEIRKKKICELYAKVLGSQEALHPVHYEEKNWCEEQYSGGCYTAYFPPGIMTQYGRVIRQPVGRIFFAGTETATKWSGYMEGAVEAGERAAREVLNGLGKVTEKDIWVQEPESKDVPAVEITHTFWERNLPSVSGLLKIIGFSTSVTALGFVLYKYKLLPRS
The assay can be described thus: Inhibition of recombinant human MAO-A using p-tyramine as substrate incubated for 45 mins by Amplex Red reagent and horseradish peroxidase based fluorescence microplate reader analysis.

For assay [3], the target named is T1, Amine oxidase [flavin-containing] B. The assay can be described thus: Inhibition of recombinant human MAO-B using benzylamine as substrate incubated for 15 mins by spectrophotometric assay.
For assay [4], the target named is T2, Amine oxidase [flavin-containing] A. Briefly: Inhibition of recombinant human MAO-A expressed in baculovirus infected BTI-TN-5B1-4 insect cells using p-tyramine as substrate incubated for 15 mins by Amplex Red reagent and horseradish peroxidase based fluorometric analysis.
The target of assay [5] is T1, Amine oxidase [flavin-containing] B. Briefly: Inhibition of recombinant human MAO-B using kynuramine as substrate incubated for 30 mins by fluorimetric analysis.
Assay [6] has the same target. Briefly: Reversible inhibition of recombinant human MAO-B assessed as inhibition constant incubated for 30 mins by dilution assay.
The target of assay [7] is T2, Amine oxidase [flavin-containing] A. Briefly: Inhibition of recombinant human MAO-A using kynuramine as substrate incubated for 30 mins by fluorimetric analysis.
Assay [8] concerns the target T1, Amine oxidase [flavin-containing] B. Briefly: Inhibition of recombinant human MAO-B expressed in baculovirus infected BTI insect cells using p-tyramine as substrate incubated for 15 mins by Amplex Red reagent and horseradish peroxidase based fluorometric analysis.
Assay [9] concerns the target T3, Amine oxidase [flavin-containing] B (Rattus norvegicus, UniProt P19643).
T3 sequence (P19643 whole entry): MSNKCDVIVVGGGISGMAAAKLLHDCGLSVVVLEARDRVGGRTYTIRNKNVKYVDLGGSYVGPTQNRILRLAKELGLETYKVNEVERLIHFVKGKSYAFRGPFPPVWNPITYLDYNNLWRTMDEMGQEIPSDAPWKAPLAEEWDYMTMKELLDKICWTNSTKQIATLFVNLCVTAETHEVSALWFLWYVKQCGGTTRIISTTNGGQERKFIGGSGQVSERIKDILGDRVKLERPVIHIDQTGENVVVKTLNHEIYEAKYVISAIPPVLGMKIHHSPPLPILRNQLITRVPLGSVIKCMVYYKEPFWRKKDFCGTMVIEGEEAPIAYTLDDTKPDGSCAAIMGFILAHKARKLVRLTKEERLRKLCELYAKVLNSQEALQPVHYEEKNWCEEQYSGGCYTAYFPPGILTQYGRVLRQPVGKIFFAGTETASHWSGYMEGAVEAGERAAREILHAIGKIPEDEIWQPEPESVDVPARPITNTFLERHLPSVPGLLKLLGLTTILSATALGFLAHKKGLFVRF
Briefly: Inhibition of rat brain mitochondria MAO-B using benzylamine as substrate incubated for 30 mins by fluorescence microplate reader analysis.

For assay [10], the target named is T2, Amine oxidase [flavin-containing] A. Briefly: Inhibition of recombinant human MAO-A using kynuramine as substrate incubated for 30 mins by spectrophotometric assay.

Turning to `CC1=NN(C(=O)CN2CCNCC2)C(c2cc(Br)cc(Br)c2O)C1` (stereo not given), the negative-log Ki (pKi) in assay [1] is 6.55.
For the compound `CC(C)(C)c1ccc(S(=O)(=O)N2CCN(C(c3ccccc3)c3ccccc3)CC2)cc1`, the pIC50 in assay [2] was 6.92.
As to `CSc1ccc(C(=O)/C=C/c2cccc3c2OCO3)cc1`, in assay [3], the pIC50 is 6.19.
As for `O=[N+]([O-])c1cccc2cc(-c3ccccc3)oc12`, in assay [4], the pIC50 was 6.77.
As to `O=C(/C=C/C=C/c1ccccc1)c1ccco1`, the pIC50 in assay [5] was 5.53; in [7], 4.77. In addition, the pKi in assay [6] is 8.40.
Take `Cc1cccc(NC(=S)N2N=C(c3ccc(O)cc3)CC2c2cccs2)c1` (stereo not given): in [8], the pIC50 is 6.70.
Consider `CCc1ccc(/C=C/C(=O)c2ccc3c(c2)OCO3)cc1`, for which the pIC50 in [9] was 6.67; in assay [10], 7.54.

As a reminder, the pKi is −log10 of the Ki, conventionally taken in molar units. By pIC50 is commonly meant −log10 of the IC50, conventionally taken in molar units.

The values above are taken from ChEMBL document CHEMBL5352403, “Monoamine oxidase inhibitors: A concise review with special emphasis on structure activity relationship studies” (Eur J Med Chem, 2022).
